Measured values taken from ChEMBL document CHEMBL4834480, “Discovery of 3,5-Dimethyl-4-Sulfonyl-1H-Pyrrole-Based Myeloid Cell Leukemia 1 Inhibitors with High Affinity, Selectivity, and Oral Bioavailability” (J Med Chem, 2021).
Activity calls are given as the source filed them. The rule behind the calls is not given here.

What was measured:
[1] = biological target: T1, Induced myeloid leukemia cell differentiation protein Mcl-1 (Homo sapiens, UniProt Q07820); test: Inhibition of FITC-labeled Bak BH3 peptide binding to GST-tagged MCL1 (171 to 327 residues) (unknown origin) expressed in Escherichia coli BL21 (DE3) incubated for 30 mins fluorescence polarization-based competitive binding assay
[2] = biological target: Apoptosis regulator Bcl-2 (Homo sapiens, UniProt P10415); test: Inhibition of FITC-labeled Bak BH3 peptide binding to GST-tagged BCL2 (1 to 205 residues) (unknown origin) expressed in Escherichia coli BL21 (DE3) at 10 uM incubated for 30 mins fluorescence polarization-based competitive binding assay relative to control
[3] = biological target: T2, Bcl-2-related protein A1 (Homo sapiens) (UniProt Q16548); test: Inhibition of FITC-labeled Bak BH3 peptide binding to GST-tagged BFL1 (1 to 151 residues) (unknown origin) expressed in Escherichia coli BL21 (DE3) at 10 uM incubated for 30 mins fluorescence polarization-based competitive binding assay relative to control
T2 sequence (whole entry): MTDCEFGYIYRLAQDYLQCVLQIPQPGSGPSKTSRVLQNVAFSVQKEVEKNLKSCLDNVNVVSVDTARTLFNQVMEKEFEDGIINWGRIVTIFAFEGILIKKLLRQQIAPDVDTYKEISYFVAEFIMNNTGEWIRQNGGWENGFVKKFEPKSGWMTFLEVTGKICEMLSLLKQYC

NCI-H929 [4] = test: Antiproliferative activity against human NCI-H929 cells assessed as decrease in cell viability measured after 72 hrs by MTT assay; type: functional, cell-based; conditions: NCI-H929, 72 h
MV4-11 = test: Antiproliferative activity against human MV4-11 cells assessed as decrease in cell viability measured after 72 hrs by MTT assay; type: functional, cell-based; conditions: MV4-11, 72 h
SK-BR-3 = test: Antiproliferative activity against human SK-BR-3 cells assessed as decrease in cell viability measured after 72 hrs by MTT assay; type: functional, cell-based; conditions: SK-BR-3, 72 h
NCI-H23 = test: Antiproliferative activity against human NCI-H23 cells assessed as decrease in cell viability measured after 72 hrs by MTT assay; type: functional, cell-based; conditions: NCI-H23, 72 h
K562 [5] = test: Antiproliferative activity against human K562 cells assessed as decrease in cell viability measured after 72 hrs by MTT assay; type: functional, cell-based; conditions: K562, 72 h
Bcl-2-like protein 1 = Bcl-2-like protein 1 (Homo sapiens, UniProt Q07817); test: Inhibition of BCL-XL(unknown origin) at 10 uM incubated for 120 mins by TR-FRET assay relative to control
NCI-H929 [6] = test: Induction of apoptosis in human NCI-H929 cells measured after 48 hrs by annexinV-FITC/propidium iodide staining based flow cytometry analysis; type: functional, cell-based; conditions: dose 1-5 µM
K562 [7] = test: Induction of apoptosis in human K562 cells assessed as activation of caspase 7 up to 5 uM after 4 hrs by luminescence based microplate reader assay; type: functional, cell-based; conditions: dose microM <=5, time 4.0 hrs
NCI-H929 [8] = test: Induction of apoptosis in human NCI-H929 cells assessed as upregulation of cleaved PARP measured after 48 hrs by Western blot analysis; type: functional, cell-based; conditions: dose microM <=5, time 48.0 hrs
K562 [9] = test: Induction of apoptosis in human K562 cells assessed as activation of caspase 3 up to 5 uM after 4 hrs by luminescence based microplate reader assay; type: functional, cell-based; conditions: dose microM <=5, time 4.0 hrs
K562 [10] = test: Induction of apoptosis in human K562 cells assessed as upregulation of cleaved PARP up to 5 uM measured after 48 hrs by Western blot analysis; type: functional, cell-based; conditions: dose microM <=5, time 48.0 hrs
[11] = biological target: T1, Induced myeloid leukemia cell differentiation protein Mcl-1; test: Inhibition of FITC-labeled Bak BH3 peptide binding to GST-tagged MCL1 (171 to 327 residues) (unknown origin) expressed in Escherichia coli BL21 (DE3) at 30 uM incubated for 30 mins fluorescence polarization-based competitive binding assay relative to control

T1 sequence (Q07820 whole entry, the tested form may be a part): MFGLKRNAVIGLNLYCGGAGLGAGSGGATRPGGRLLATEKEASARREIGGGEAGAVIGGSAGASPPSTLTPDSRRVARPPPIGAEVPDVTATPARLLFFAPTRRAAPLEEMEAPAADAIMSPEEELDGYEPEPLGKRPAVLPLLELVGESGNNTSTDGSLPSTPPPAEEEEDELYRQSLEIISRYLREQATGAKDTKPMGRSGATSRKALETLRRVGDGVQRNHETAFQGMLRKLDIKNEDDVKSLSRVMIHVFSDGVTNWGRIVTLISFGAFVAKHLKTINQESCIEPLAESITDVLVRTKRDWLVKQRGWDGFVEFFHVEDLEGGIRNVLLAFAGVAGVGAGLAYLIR
Bcl-2-like protein 1, sequence (Q07817 whole entry): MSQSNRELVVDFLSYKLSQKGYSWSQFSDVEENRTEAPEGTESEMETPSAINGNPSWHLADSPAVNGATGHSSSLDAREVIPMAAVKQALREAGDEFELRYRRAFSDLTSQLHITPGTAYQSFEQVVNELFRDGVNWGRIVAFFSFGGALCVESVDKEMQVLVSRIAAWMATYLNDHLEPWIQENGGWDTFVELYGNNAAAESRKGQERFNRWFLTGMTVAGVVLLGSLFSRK
Apoptosis regulator Bcl-2, sequence (P10415 whole entry, the tested form may be a part): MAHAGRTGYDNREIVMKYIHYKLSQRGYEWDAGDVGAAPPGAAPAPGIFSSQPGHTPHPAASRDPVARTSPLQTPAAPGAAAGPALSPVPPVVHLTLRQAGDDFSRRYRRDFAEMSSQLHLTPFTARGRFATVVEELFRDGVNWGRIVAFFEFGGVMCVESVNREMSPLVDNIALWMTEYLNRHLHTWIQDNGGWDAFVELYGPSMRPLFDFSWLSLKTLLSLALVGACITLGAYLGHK

SMILES	Ki [1] [nM]	other results
Cc1cc(OCCCn2c(C)c(S(=O)(=O)C3CCCCC3)c(C)c2C(=O)O)cc(C)c1Cl	> 10000	–
Cc1cc(OCCCn2c(C)c(S(=O)(=O)c3ccc(C(=O)c4ccccc4)cc3)c(C)c2C(=O)O)cc(C)c1Cl	380	–
COc1ccc(S(=O)(=O)c2c(C)c(C(=O)O)n(CCCOc3cc(C)c(Cl)c(C)c3)c2C)cc1	70	inhibition [2]: 14.2%; inhibition [3]: 1.82%; IC50 (NCI-H929 [4]): 390 nM; IC50 (MV4-11): 1560 nM; IC50 (SK-BR-3): 6270 nM; IC50 (NCI-H23): 9720 nM; IC50 (K562 [5]): > 30000 nM; inhibition (Bcl-2-like protein 1): 27%
Cc1cc(OCCCn2c(C)c(S(=O)(=O)c3ccc(-c4ccccc4)cc3)c(C)c2C(=O)O)cc(C)c1Cl	130	–
Cc1nn(C)c(COc2ccc(N3CCN(S(=O)(=O)N(C)C)CC3)cc2)c1-c1cccc2c(CCCOc3cccc4ccccc34)c(C(=O)O)n(CCN3CCOCC3)c12	6	Activity (NCI-H929 [6]): Dose-Dependent Effect; Activity (K562 [7]): inactive; Activity (NCI-H929 [8]): Dose-Dependent Effect; Activity (K562 [9]): inactive; IC50 (NCI-H929 [4]): 900 nM; IC50 (MV4-11): 1550 nM; IC50 (SK-BR-3): 4310 nM; IC50 (NCI-H23): 13500 nM; IC50 (K562 [5]): > 30000 nM; Activity (K562 [10]): inactive
Cc1cc(OCCCn2c(C)c(S(=O)(=O)c3ccccn3)c(C)c2C(=O)O)cc(C)c1Cl	1900	–
Cc1cc(OCCCn2c(C)c(S(=O)(=O)c3ccc([N+](=O)[O-])cc3)c(C)c2C(=O)O)cc(C)c1Cl	420	–
Cc1cc(OCCCn2c(C)c(S(=O)(=O)c3cccs3)c(C)c2C(=O)O)cc(C)c1Cl	80	inhibition [2]: 7.54%; IC50 (NCI-H929 [4]): 700 nM; IC50 (MV4-11): 2300 nM; IC50 (SK-BR-3): 5130 nM; IC50 (NCI-H23): 3100 nM; IC50 (K562 [5]): 11300 nM; inhibition (Bcl-2-like protein 1): 37%
COc1ccccc1S(=O)(=O)c1c(C)c(C(=O)O)n(CCCOc2cc(C)c(Cl)c(C)c2)c1C	430	–
Cc1cc(OCCCn2c(C)c(S(=O)(=O)c3c(C)cccc3C)c(C)c2C(=O)O)cc(C)c1Cl	> 10000	–
Cc1cc(OCCCn2c(C)c(S(=O)(=O)c3ccccc3)c(C)c2C(=O)O)cc(C)c1Cl	190	–
Cc1cc(OCCCn2c(C)c(S(=O)(=O)c3ccccc3Br)c(C)c2C(=O)O)cc(C)c1Cl	> 10000	–
Cc1cc(OCCCn2c(C)c(S(=O)(=O)c3ccc(Oc4ccccc4)cc3)c(C)c2C(=O)O)cc(C)c1Cl	200	–
Cc1cc(OCCCn2c(C)c(S(=O)(=O)c3ccncc3)c(C)c2C(=O)O)cc(C)c1Cl	900	–
Cc1cc(C)cc(S(=O)(=O)c2c(C)c(C(=O)O)n(CCCOc3cc(C)c(Cl)c(C)c3)c2C)c1	> 10000	–
Cc1cc(OCCCn2c(C)c(S(=O)(=O)c3cccc4ccccc34)c(C)c2C(=O)O)cc(C)c1Cl	360	–
CC(=O)c1ccccc1S(=O)(=O)c1c(C)c(C(=O)O)n(CCCOc2cc(C)c(Cl)c(C)c2)c1C	500	–
Cc1cc(OCCCn2c(C)c(S(=O)(=O)c3cccc(Br)c3)c(C)c2C(=O)O)cc(C)c1Cl	60	–
Cc1cc(OCCCn2c(C)c(S(=O)(=O)c3ccc(C(C)C)cc3)c(C)c2C(=O)O)cc(C)c1Cl	170	–
Cc1cc(OCCCn2c(C)c(S(=O)(=O)c3ccc(C(C)(C)C)cc3)c(C)c2C(=O)O)cc(C)c1Cl	340	–
Cc1cc(OCCCn2c(C)c(S(=O)(=O)c3ccccc3O)c(C)c2C(=O)O)cc(C)c1Cl	150	–
CCOc1ccc(S(=O)(=O)c2c(C)c(C(=O)O)n(CCCOc3cc(C)c(Cl)c(C)c3)c2C)cc1	140	–
COc1cccc(S(=O)(=O)c2c(C)c(C(=O)O)n(CCCOc3cc(C)c(Cl)c(C)c3)c2C)c1	200	–
Cc1cc(OCCCn2c(C)c(S(=O)(=O)C3CCCC3)c(C)c2C(=O)O)cc(C)c1Cl	> 10000	–
Cc1cc(OCCCn2c(C)c(S(=O)(=O)c3ccc(C(=O)O)cc3)c(C)c2C(=O)O)cc(C)c1Cl	420	–
Cc1cc(OCCCn2c(C)c(S(=O)(=O)c3cccc(O)c3)c(C)c2C(=O)O)cc(C)c1Cl	150	–
CC(=O)c1cccc(S(=O)(=O)c2c(C)c(C(=O)O)n(CCCOc3cc(C)c(Cl)c(C)c3)c2C)c1	550	–

Second part, led by results:

Ki [1] [nM]	SMILES	other results
70	CCc1ccc(S(=O)(=O)c2c(C)c(C(=O)O)n(CCCOc3cc(C)c(Cl)c(C)c3)c2C)cc1	inhibition [2]: 12.4%; inhibition [3]: 8.77%; IC50 (NCI-H929 [4]): 490 nM; IC50 (MV4-11): 2590 nM; IC50 (SK-BR-3): 3920 nM; IC50 (NCI-H23): 5410 nM; IC50 (K562 [5]): > 30000 nM; inhibition (Bcl-2-like protein 1): 36%
240	Cc1ccc(S(=O)(=O)c2c(CC(C)C)c(C(=O)O)n(CCCOc3cc(C)c(Cl)c(C)c3)c2C)cc1	–
470	Cc1ccc(S(=O)(=O)c2cc(C(=O)O)n(CCCOc3cc(C)c(Cl)c(C)c3)c2)cc1	–
1600	Cc1ccc(S(=O)(=O)c2c(C)c(C(=O)O)n(CCCOc3cc(C)c(Cl)c(C)c3)c2CC(C)C)cc1	–
40	Cc1cc(OCCCn2c(C)c(S(=O)(=O)c3ccc(Br)cc3)c(C)c2C(=O)O)cc(C)c1Cl	inhibition [2]: 11.6%; inhibition [3]: 4.14%; IC50 (NCI-H929 [4]): 480 nM; IC50 (MV4-11): 1700 nM; IC50 (SK-BR-3): 5600 nM; IC50 (NCI-H23): 3840 nM; IC50 (K562 [5]): > 30000 nM; inhibition (Bcl-2-like protein 1): 13%
340	Cc1cc(OCCCn2c(C)c(S(=O)(=O)c3ccc(N)cc3)c(C)c2C(=O)O)cc(C)c1Cl	–
170	Cc1ccc(S(=O)(=O)c2c(C)c(C(=O)O)n(CCCOc3cc(C)c(Cl)c(C)c3)c2C)cc1	–
18	Cc1cc(OCCCn2c(C)c(S(=O)(=O)c3ccc(O)cc3)c(C)c2C(=O)O)cc(C)c1Cl	IC50 (NCI-H929 [4]): 1390 nM; IC50 (MV4-11): 2020 nM; IC50 (SK-BR-3): 7020 nM; IC50 (NCI-H23): 2160 nM; IC50 (K562 [5]): 14800 nM
700	Cc1ccc(C(=O)c2cc(C(=O)O)n(CCCOc3cc(C)c(Cl)c(C)c3)c2)cc1	–
2000	Cc1cc(OCCCn2c(C)c(S(=O)(=O)Cc3ccccc3)c(C)c2C(=O)O)cc(C)c1Cl	–
680	Cc1ccc(Sc2c(C)c(C(=O)O)n(CCCOc3cc(C)c(Cl)c(C)c3)c2C)cc1	–
1930	CCc1c(S(=O)(=O)c2ccc(C)cc2)c(CC)n(CCCOc2cc(C)c(Cl)c(C)c2)c1C(=O)O	–
180	Cc1cc(OCCCn2c(C)c(S(=O)(=O)c3ccc(Cl)cc3)c(C)c2C(=O)O)cc(C)c1Cl	–
810	Cc1ccc(S(=O)(=O)c2cn(CCCOc3cc(C)c(Cl)c(C)c3)c(C(=O)O)c2C)cc1	–
5340	Cc1ccc(Cc2cc(C(=O)O)n(CCCOc3cc(C)c(Cl)c(C)c3)c2)cc1	inhibition [11]: 53%
120	CCc1c(S(=O)(=O)c2ccc(C)cc2)c(C)n(CCCOc2cc(C)c(Cl)c(C)c2)c1C(=O)O	–
> 10000	Cc1ccc(S(=O)(=O)Nc2cc(C(=O)O)n(CCCOc3cc(C)c(Cl)c(C)c3)c2)cc1	–
> 10000	Cc1ccc(CNc2cc(C(=O)O)n(CCCOc3cc(C)c(Cl)c(C)c3)c2)cc1	–
260	Cc1cc(OCCCn2c(C)c(S(=O)(=O)c3ccc(F)cc3)c(C)c2C(=O)O)cc(C)c1Cl	–
2490	CCc1c(S(=O)(=O)c2ccc(C)cc2)c(C)c(C(=O)O)n1CCCOc1cc(C)c(Cl)c(C)c1	–
